In patent US20250241893A1, “TREATMENT OF COGNITIVE DYSFUNCTION” (GH RESEARCH IRELAND LIMITED, priority 2022, published 2025):
Entries after “also recorded” stand apart in the source; their conditions may differ.

Tests used:
[1] = tested on: Salmonella typhimurium (TA98, TA100, TA1535 and TA1537); test: Bacterial mutation test in Salmonella typhimurium; format: cell-based; conditions: up to 5000 μg/plate, absence and presence of rat liver S-9
Description: These conditions included treatments at concentrations up to 5000 μg/plate (the maximum recommended concentration according to current regulatory guidelines), in the absence and in the presence of a rat liver metabolic activation system (S-9).

[2] = Pharmacokinetics of 5-MeO-DMT and bufotenine after inhalation; format: in vivo, human; conditions: 3 hours after inhalation, whole dose range (6 mg, 12 mg, 18 mg)
Description: Blood samples were obtained at 1; 2; 4; 7; 10; 15; 20; 30; 45 min and 1; 1.5; 2; 3; 4 hours after administration. […] PK parameters were generated by algebraic analysis of the concentration versus time plots for each individual. The analysis was carried out using the software Phoenix WinNonlin 6.3.

[3] = tested on: patients with postpartum depression (PPD); test: Clinical trial of inhaled 5-MeO-DMT in postpartum depression; conditions: one PPD patient
Description: The single-arm, open-label clinical trial will involve 15 adult female patients with clinically diagnosed postpartum depression (PPD).
The second dose (12 mg) will only be administered if: • a. A peak experience (total score of • 75) has not been achieved following the 6 mg dose, and • b. The 6 mg dose was safe and well-tolerated according to the investigator, • c. Any psychoactive effects (PsE) of the prior dose have subsided, and • d. Pre-dose vital parameters and forced expiratory volume in one second (FEV1) are in normal range, or if outside of the normal range, are not clinically significant according to the investigator. • 3. Similarly, a third dose (18 mg) will only be administered if: • a. A peak experience (total score of • 75) has not been achieved following the 12 mg dose, and • b. The 12 mg dose was safe and well-tolerated according to the investigator, and • c. Any PsE of the prior dose have subsided, and • d. Pre-dose vital parameters and forced expiratory volume in one second (FEV1) are in normal range, or if outside of the normal range, are not clinically significant according to the investigator.
The patients will be assessed for a peak psychedelic experience (based on a patient-scored visual analogue scale, the PE scale), sedation, and other endpoints after dosing.
Follow-up visits are planned for Day 1, and Day 7 after the dosing day.
The following criteria must be met by all patients considered for clinical trial participation: • 1. Is female and in the age range between 18 and 45 years (inclusive) at screening. • 2. Has a body mass index (BMI) in the range of 18.5 and 35 kg/m^2 (inclusive) at screening. • 3. Meets the trial criteria for PPD as assessed by a trial psychiatrist or registered psychologist: • a. Diagnosis of Major Depressive Disorder without psychotic features, confirmed by the Mini-International Neuropsychiatric Interview (MINI), with peri-partum onset that began no earlier than gestation and no later than the first 4 weeks postpartum. • b. Has a Montgomery-Asberg Depression Rating Scale (MADRS) total score of equal to or greater than 28 at screening and pre-dose on Day 0. • 6. […] Patients must have a negative pregnancy test at screening and on the pre-test day (Day −1). • 5. Is willing to delay start of other antidepressant or anxiety medication until after the end of the trial at Day 7 and agrees to keep any psychotherapy unchanged during the trial.
A potential patient who meets any of the following key exclusion criteria will be excluded from participation in this trial: • 1. Has, based on history, psychiatric assessment, and evaluation of the MINI, a current or prior diagnosis of bipolar disorder, a manic or hypomanic episode, a psychotic disorder, Major Depressive Disorder (MDD) or other mood disorder with psychotic features, obsessive compulsive disorder, post-traumatic stress disorder (PTSD), autism spectrum disorder, borderline personality disorder, schizophrenia, delusional disorder, paranoid personality disorder, schizoaffective disorder, clinically significant intellectual disability, or any other psychiatric comorbidity that renders the patient unsuitable for the trial according to the investigator's judgment. • 2. Has one or more first or second degree relatives with a current or previously diagnosed bipolar disorder, psychotic disorder or other mood disorder (including MDD) with psychotic features. • 3. Is in the judgement of a trial psychiatrist or registered psychologist, at significant risk for suicide based on history, psychiatric assessment, and evaluation of suicidal ideation and suicidal behaviour based on the Columbia-Suicide Severity Rating Scale (C-SSRS). • 4. Has taken anti-depressive medication within 14 days or 5 half-lives (whichever is longer) prior to dosing (exception: within the last 5 weeks in the case of fluoxetine). • 5.

## COc1ccc2[nH]cc(CCN(C)C)c2c1 [5-MeO-DMT]
[1]
  Mutation induction: did not induce mutation
[2]
  Detectability in the plasma: no longer detectable
[3]
  ECG (3 hours), safety laboratory analyses (7 days), CADSS (3 hours, 1 day, 7 days): unremarkable
  MADRS remission (MADRS total score equal or less than 10): fulfilled
  MADRS response (at least 50% improvement from baseline): fulfilled
  Reported adverse events (cramping left abdominal pain and headache, Day 0): mild, short-lasting and resolved spontaneously
[3]; 2 hr, baseline 29
  Total MADRS improvement: 24
  Total MADRS score: 5
[3]; Day 1, baseline 3
  MADRS Lassitude score: 0
[3]; Day 1, baseline 6
  BPRS Tension improvement: 5
[3]; Day 1, baseline 29
  Total MADRS improvement: 29
  Total MADRS score: 0
[3]; Day 7, Day 0 score 3
  BIMF item 16 (I worry about how other people judge me (as a mother)) score: 5
[3]; Day 7, Day 0 score 5
  BIMF item 10 (I trust my own feelings (instincts) when taking care of my baby) score: 6
[3]; Day 7, Day 0 score 5, maximum possible 12
  BIMF functional domain Adjustment score: 6
[3]; Day 7, Day 0 score 9, maximum possible 18
  BIMF functional domain Self Care score: 13
[3]; Day 7, Day 0 score 12, maximum possible 12
  BIMF functional domain Infant Care score: 12
[3]; Day 7, Day 0 score 15, maximum possible 18
  BIMF functional domain Mother-Child Interaction score: 17
[3]; Day 7, Day 0 score 17, maximum possible 18
  BIMF functional domain Social Support score: 18
[3]; Day 7, Day 0 score 28, maximum possible 36
  BIMF functional domain Management score: 33
[3]; Day 7, Day 0 score 44, maximum possible 60
  BIMF functional domain Psychological Well-being score: 53
[3]; Day 7, baseline 29
  Total MADRS improvement: 28
  Total MADRS score: 1
[3]; Day 7, from 92 to 105 (possible total 120)
  BIMF total score percentage improvement: 14%
[3]; Day 7 vs Day 0
  BIMF TOTAL Δ (Day 7): 13
  BIMF functional domain Adjustment % improvement: 20.00%
  BIMF functional domain Infant Care % improvement: 0.00%
  BIMF functional domain Management % improvement: 18%
  BIMF functional domain Self Care % improvement: 44%
[3]; IDR
  Time to clinical remission after administration: ≤ 2 h
[3]; IDR 6 mg then 12 mg
  Tolerability of inhaled 5-MeO-DMT: well tolerated with no inhalation-related adverse events; also recorded: well tolerated
[3]; discharge, baseline 6
  BPRS Tension improvement: 5
[3]; shortly after administration
  Changes in vital parameters: temporary, clinically non-relevant increase in heart rate and blood pressure
